Experimental data reported in PMC11642044 (International Journal of Molecular Sciences, 2024).
Like-named read-outs stand apart in the source and are kept apart here. Where a SMILES comes first, the peptide text is derived from it.

How the values were obtained:
primary astrocytes [1] = assay: LIF secretion (ELISA), primary astrocytes; assay type: cell-based, mouse
Experimental: HEK293, U87-MG, 1321N1, SK-N-SH, and SK-N-MC cells were cultured in MEM supplemented with 10% (vol/vol) fetal bovine serum (FBS), 50 U/mL penicillin, and 50 μg/mL streptomycin. Primary astrocyte cultures were prepared from the cerebral cortexes of neonatal mice (P2). The cerebral hemispheres were isolated and transferred to ice-cold Hank’s buffer, and the meninges were carefully removed. Tissues were then minced into approximately 1 mm pieces, triturated, filtered through a 60 µm nylon screen, and collected by centrifugation at approximately 3000× g for 5 min. The cell pellets were dispersed with a pipette and resuspended in a medium containing 10% (vol/vol) FBS in low-glucose Dulbecco’s modified Eagle’s medium. After trituration, the cells were filtered through a 10 µm screen and then plated into 6-well plates at a density of 3 × 10^5 cells/mL and cultured for about 10 days. The medium was replaced twice per week. Dibutyryl cyclic adenosine monophosphate (DBcAMP; 0.15 mM, Sigma, St Louis, MO, USA) was added to induce differentiation when the cells were grown to 95% confluence. […]
Conditioned media were analyzed for the presence of multiple cytokines by using the cytokine multiplex assay kits (Merck Millipore, MA, USA) as previously described. […] The detection beads were then washed again and resuspended in 120 μL of reading buffer. […]

U87-MG cells [2] = assay: Intracellular Ca2+ mobilization by Gq-coupled receptor agonists (FLIPR, Fluo-4), U87-MG; assay type: cell-based, human
Experimental: (§1) Cells were seeded in 96-well plates (clear bottom and black wall) at 2.5 × 10^4 cells per well on the day before assay. The cells (~80–100% confluence) were then washed with Hank’s balanced salt solution (HBSS) and aspirated, followed by addition of 100 μL of FLIPR labeling dye (containing Fluo-4 and probenecid in HBSS) to each well before incubation at 37 °C for 1 h. Finally, the 96-well plate containing the labeled cells was transferred to the FLIPR (Molecular Devices, San Jose, CA, USA), and 50 μL of HBSS (with or without agonists) was added to each well. The fluorescent signals that reflect the intracellular Ca^2+ transients were monitored by an excitation wavelength of 488 nm, and detection was undertaken with an emission wavelength from 510 to 570 nm for 3 min upon the drug treatments, as described previously.

primary astrocytes [3] = assay: Intracellular Ca2+ mobilization by Gq-coupled receptor agonists (FLIPR, Fluo-4), primary cortical astrocytes; assay type: cell-based, mouse; conditions: 10 μM agonist, n = 4
Experimental: HEK293, U87-MG, 1321N1, SK-N-SH, and SK-N-MC cells were cultured in MEM supplemented with 10% (vol/vol) fetal bovine serum (FBS), 50 U/mL penicillin, and 50 μg/mL streptomycin. Primary astrocyte cultures were prepared from the cerebral cortexes of neonatal mice (P2). The cerebral hemispheres were isolated and transferred to ice-cold Hank’s buffer, and the meninges were carefully removed. Tissues were then minced into approximately 1 mm pieces, triturated, filtered through a 60 µm nylon screen, and collected by centrifugation at approximately 3000× g for 5 min. The cell pellets were dispersed with a pipette and resuspended in a medium containing 10% (vol/vol) FBS in low-glucose Dulbecco’s modified Eagle’s medium. After trituration, the cells were filtered through a 10 µm screen and then plated into 6-well plates at a density of 3 × 10^5 cells/mL and cultured for about 10 days. The medium was replaced twice per week. Dibutyryl cyclic adenosine monophosphate (DBcAMP; 0.15 mM, Sigma, St Louis, MO, USA) was added to induce differentiation when the cells were grown to 95% confluence. Primary mouse cortical neuronal cultures were obtained from E16 ICR mouse embryos. Briefly, cerebral cortices were removed from mouse embryos and mechanically dissociated in PBS with glucose (18 mM). Neurons were then seeded onto poly-L-lysine (1 mg/mL)-coated 96-well plates at 5 × 10^4 cells/well in a B27 Plus Neuronal culture system (Thermo Fisher Scientific), supplemented with 2 mM glutamine, 5 μM mercaptoethanol, 100 U/mL penicillin and 100 μg/mL streptomycin. The cultured neurons were maintained in a humidified incubator at 37 °C with 5% CO2 for 7 days prior to use.
as §1

1321-N1 cells = assay: Intracellular Ca2+ mobilization by Gq-coupled receptor agonists (FLIPR, Fluo-4), 1321-N1; assay type: cell-based, human
Experimental: as §1

U87-MG cells [4] = assay: LIF production into conditioned media (ELISA), U87-MG; assay type: cell-based, human
ERK in SK-N-SH cells = assay type: cell-based, human
Experimental: (§2) These conditioned media were either immediately applied to SK-N-SH/SK-N-MC cells (80–100% confluence) in 6-well plates for 15 min, or subjected to heat treatment on a 96 °C heat block for 5 min, and then cooled to 37 °C before they were applied to the SK-N-SH/SK-N-MC cells for 15 min. […] For the SK-N-MC-derived conditioned media, SK-N-MC cells (80–100% confluence) in a 10 cm culture dish were serum-starved in 10 mL of MEM (without FBS), with 1 mL of the resulting conditioned medium being collected at indicated time points (15 min, 1 h, 3 h, 6 h). Simultaneously, U87-MG cells (80–100% confluence) in 12-well plates were serum-starved in MEM for 6 h, followed by pretreatment of […] (5 μM, 15 min), and then challenged with the SK-N-MC-derived conditioned media (mentioned above) for 10 min before cell lysis. […]
(§3) SDS-PAGE and Western blotting were performed as described in our previous studies. […] The amount of protein in each sample was determined by detergent compatible (DC) protein assay according to the supplier’s instruction (Bio-Rad, Hercules, CA, USA). […] Resolved proteins were detected by specific primary antibodies and horseradish peroxidase-conjugated secondary antisera. The level of β-actin was determined as an internal control.

ERK in SK-N-MC cells = assay type: cell-based, human
Experimental: as §2, §3

STAT3 in SK-N-MC cells [5] = assay: STAT3 Tyr705 phosphorylation in SK-N-MC by conditioned media from agonist-treated U87-MG; assay type: cell-based, human
Experimental: as §2, §3

[6] = test system: STAT3 in primary mouse cortical neurons; assay: STAT3 phosphorylation by direct application of cytokine, primary cortical neurons; assay type: cell-based; conditions: 0–100 ng/mL, 15 min
Experimental: (§4) To determine if the experimental cells were readily responsive to LIF and IL-6, SK-N-MC cells, mouse primary neurons and primary astrocytes (80–100% confluence in 12-well plates) were serum-starved for 6 h, followed by treatment of indicated concentrations (0–100 ng/mL) of LIF and IL-6 for 15 min. The subsequent cell lysates were subjected to SDS-PAGE and Western blot with specific antibodies to detect stimulatory phosphorylated forms and the total amounts of STAT3.
as §3, with “control. […] Chemiluminescence signals were then detected by ChemiDoc imaging systems (Bio-Rad, Hercules, CA, USA) with the subsequent band densities quantified by ImageJ (https://imagej.net/ij/) analysis software (National Institutes of Health, MD, USA). […]” for “control.”

STAT3 in U87-MG cells = assay: STAT3 phosphorylation by direct application of cytokine, U87-MG; assay type: cell-based, human
STAT3 in SK-N-MC cells [7] = assay: STAT3 phosphorylation by direct application of cytokine, SK-N-MC; assay type: cell-based, human; conditions: LIF 0–100 ng/mL, 15 min
Experimental: as §4
as §3, with “control. […] Chemiluminescence signals were then detected by ChemiDoc imaging systems (Bio-Rad, Hercules, CA, USA) with the subsequent band densities quantified by ImageJ (https://imagej.net/ij/) analysis software (National Institutes of Health, MD, USA). […]” for “control.”

[8] = test system: STAT3 in primary mouse astrocytes; assay: STAT3 phosphorylation by direct application of cytokine, primary astrocytes; assay type: cell-based; conditions: 0–100 ng/mL, 15 min
Experimental: as §4
SDS-PAGE and Western blotting were performed as described in our previous studies. In brief, cells in 6-well plates (5 × 10^5 cells/well) were lysed in 500 μL of ice-cold lysis buffer (50 mM Tris-HCl at pH 7.5 containing 100 mM NaCl, 5 mM EDTA, 40 mM NaP2O7, 1% Triton X-100, 1 mM dithiothreitol, 200 μM Na3VO4, 100 μM phenylmethylsulfonyl fluoride, 2 μg/mL leupeptin, 4 μg/mL aprotinin, and 0.7 μg/mL pepstatin) and then gently shaken for 30 min. The amount of protein in each sample was determined by detergent compatible (DC) protein assay according to the supplier’s instruction (Bio-Rad, Hercules, CA, USA). Clarified lysates (30 μg protein per sample) were resolved on 12% SDS-polyacrylamide gels and then transferred to nitrocellulose membranes (Westborough, MA, USA). Resolved proteins were detected by specific primary antibodies and horseradish peroxidase-conjugated secondary antisera. The level of β-actin was determined as an internal control. Immunoblots were visualized by chemiluminescence with the WesternBright ECL reagents from Advansta (San Jose, CA, USA). Chemiluminescence signals were then detected by ChemiDoc imaging systems (Bio-Rad, Hercules, CA, USA) with the subsequent band densities quantified by ImageJ (https://imagej.net/ij/) analysis software (National Institutes of Health, MD, USA). All primary antibodies which specifically recognize B1R, B2R, ERK, p-ERK, p38, p-p38, JNK, p-JNK, STAT3, p-STAT3, and β-actin were applied at 1:1000 dilution for Western blotting.

Molecule: N=C(N)NCCC[C@H](NC(=O)[C@H](Cc1ccccc1)NC(=O)[C@@H]1CCCN1C(=O)[C@H](CO)NC(=O)[C@H](Cc1ccccc1)NC(=O)CNC(=O)[C@@H]1CCCN1C(=O)[C@@H]1CCCN1C(=O)[C@@H](N)CCCNC(=N)N)C(=O)O [bradykinin] (H-RPPGFSPFR-OH)
- EC50 (primary astrocytes [1]): 23 nM

Molecule: C[N+](C)(C)CCOC(N)=O [carbachol]
- intracellular Ca2+ response (U87-MG cells [2]; 10 μM agonist, U87-MG, FLIPR, Fluo-4, 3 min, n = 3): lack of a carbachol-stimulated Ca^2+ response
- intracellular Ca2+ mobilization (primary astrocytes [3]): significantly stimulated Ca^2+ mobilization
- Ca2+ response, fold stimulation (1321-N1 cells; 10 μM agonist, 1321-N1, FLIPR): over 100 fold
- intracellular Ca2+ response (1321-N1 cells; 10 μM agonist, 1321-N1, FLIPR, Fluo-4, 3 min, n = 3): elicited Ca^2+ responses in 1321-N1 cells
- LIF production (U87-MG cells [4]; 10 μM agonist, 24 h, U87-MG, ELISA, n = 3): failed to induce the production of LIF

Molecule: NCCc1c[nH]cn1 [histamine]
- Ca2+ response, fold stimulation (U87-MG cells [2]): over 100 fold
- intracellular Ca2+ response (U87-MG cells [2]): significantly stimulated intracellular Ca^2+ responses
- Ca2+ response, fold stimulation (1321-N1 cells): over 100 fold
- intracellular Ca2+ response (1321-N1 cells): significantly stimulated intracellular Ca^2+ responses
- ERK phosphorylation by conditioned media (ERK in SK-N-SH cells): little or no change in ERK phosphorylation
- ERK phosphorylation by conditioned media (ERK in SK-N-MC cells): little or no change in ERK phosphorylation
- LIF production (U87-MG cells [4]): significantly elevated the levels of LIF
- STAT3 Tyr705 phosphorylation by conditioned media (STAT3 in SK-N-MC cells [5]): stimulated STAT3 Tyr^705 phosphorylation

Molecule: leukemia inhibitory factor [LIF]
- STAT3 phosphorylation [6]: dose-dependently stimulated STAT3 phosphorylation
- STAT3 response compared with IL-6 [6]: apparently stronger than that induced by IL-6
- STAT3 phosphorylation (STAT3 in U87-MG cells): readily stimulated by LIF in a dose-dependent manner
- STAT3 phosphorylation (STAT3 in SK-N-MC cells [7]): dose-dependent manner
- potency in STAT3 phosphorylation compared with IL-6 [8]: even more potent than IL-6
- STAT3 phosphorylation ([8]; n = 3): readily stimulated by LIF in a dose-dependent manner
